The values below come from patent US10905762B2, “Targeted nanoparticle conjugates” (CASE WESTERN RESERVE UNIVERSITY, priority 2011, dated 2021).

One experiment has as its target EGFR (Homo sapiens, UniProt P00533). The conditions noted are these: binding to the EGFR; read-out: dissociation constant; cited from earlier work.
Experiment [1] has as its system 9L.E29 cells. The conditions noted are these: free Pc 4, stated as known; cited from earlier work.
Experiment [2] has as its system 9L.E29 cells. Nature of the experiment: Cell viability assay using Trypan blue. Format: cell-based, rat. The settings on record: 1 μM of Pc 4 and 1 J/cm^2 of laser power. The text has this: Cell viability assays using Trypan blue for EGFpep-Au NP-Pc 4 treated cells further illustrated this point (FIG. 4C), showing not only an increase in the number of dead cancer cells, but possibly different pathways of cell death.

A further experiment concerns glioma cancer cells. The settings on record: stated as known; cited from earlier work.

Take “YHWYGYTPQNVI [EGF peptide, YHWYGYTPQNVI-amide]”: the Kd on EGFR was 22 nM.
On to phthalocyanine 4 [free Pc 4], for which, in the experiment with 9L.E29 cells [1], the “subcellular localization of Pc 4 (known)” value is “localize mainly in mitochondria with some additional localization within lysosomes”. Besides, in the experiment on 9L.E29 cells [2], the “mode of cell death (Trypan blue staining)” value was “caused most cancer cells to die very quickly”. Moreover, in the experiment on glioma cancer cells, the “localization of free Pc 4 (known)” value is listed as “known to locate in the mitochondria”.
